IC50 data for 23 molecules are collected here from ChEMBL document CHEMBL5726294, “Derivatives of 6-(2,3-dichlorophenyl)-1,2,4-triazin-5-amine” (2019).

Values joined by “and” are separate entries in the source; they are usually repeats but may differ in a detail not shown here. Equal entries are not always repeated.

The target of assay [1] is T1, Sodium channel protein type 9 subunit alpha (Homo sapiens, UniProt Q15858). Put plainly: (§1) Ex-Vivo Potencies in Inactivated state: The potencies of the compounds provided herein to block specific Na+ channels was measured using automated patch clamp electrophysiologically of Nav1.7 sodium channels (human SCN9A gene) stably expressed in CHO cells using the IonWorks Barracuda system. Currents were measured from the whole cell patch configuration. From a holding potential of −90 mV, membranes were subjected to a 200 ms pre-pulse to −120 mV, then pulsed to 0 mV to measure blockade of the tonic (resting) state. Inactivated state block was elicited by repolarization to −100 mV (20 ms pulse duration), followed by depolarization to 0 mV (20 ms pulse duration). Peak inward Na+ currents were measured in the presence of vehicle or various concentrations of the test compound to determine the percent block of current. The assay is classed as cell-based. (In general: Patch clamp records ionic current or voltage across a cell membrane.)
T1 sequence (Q15858 whole entry): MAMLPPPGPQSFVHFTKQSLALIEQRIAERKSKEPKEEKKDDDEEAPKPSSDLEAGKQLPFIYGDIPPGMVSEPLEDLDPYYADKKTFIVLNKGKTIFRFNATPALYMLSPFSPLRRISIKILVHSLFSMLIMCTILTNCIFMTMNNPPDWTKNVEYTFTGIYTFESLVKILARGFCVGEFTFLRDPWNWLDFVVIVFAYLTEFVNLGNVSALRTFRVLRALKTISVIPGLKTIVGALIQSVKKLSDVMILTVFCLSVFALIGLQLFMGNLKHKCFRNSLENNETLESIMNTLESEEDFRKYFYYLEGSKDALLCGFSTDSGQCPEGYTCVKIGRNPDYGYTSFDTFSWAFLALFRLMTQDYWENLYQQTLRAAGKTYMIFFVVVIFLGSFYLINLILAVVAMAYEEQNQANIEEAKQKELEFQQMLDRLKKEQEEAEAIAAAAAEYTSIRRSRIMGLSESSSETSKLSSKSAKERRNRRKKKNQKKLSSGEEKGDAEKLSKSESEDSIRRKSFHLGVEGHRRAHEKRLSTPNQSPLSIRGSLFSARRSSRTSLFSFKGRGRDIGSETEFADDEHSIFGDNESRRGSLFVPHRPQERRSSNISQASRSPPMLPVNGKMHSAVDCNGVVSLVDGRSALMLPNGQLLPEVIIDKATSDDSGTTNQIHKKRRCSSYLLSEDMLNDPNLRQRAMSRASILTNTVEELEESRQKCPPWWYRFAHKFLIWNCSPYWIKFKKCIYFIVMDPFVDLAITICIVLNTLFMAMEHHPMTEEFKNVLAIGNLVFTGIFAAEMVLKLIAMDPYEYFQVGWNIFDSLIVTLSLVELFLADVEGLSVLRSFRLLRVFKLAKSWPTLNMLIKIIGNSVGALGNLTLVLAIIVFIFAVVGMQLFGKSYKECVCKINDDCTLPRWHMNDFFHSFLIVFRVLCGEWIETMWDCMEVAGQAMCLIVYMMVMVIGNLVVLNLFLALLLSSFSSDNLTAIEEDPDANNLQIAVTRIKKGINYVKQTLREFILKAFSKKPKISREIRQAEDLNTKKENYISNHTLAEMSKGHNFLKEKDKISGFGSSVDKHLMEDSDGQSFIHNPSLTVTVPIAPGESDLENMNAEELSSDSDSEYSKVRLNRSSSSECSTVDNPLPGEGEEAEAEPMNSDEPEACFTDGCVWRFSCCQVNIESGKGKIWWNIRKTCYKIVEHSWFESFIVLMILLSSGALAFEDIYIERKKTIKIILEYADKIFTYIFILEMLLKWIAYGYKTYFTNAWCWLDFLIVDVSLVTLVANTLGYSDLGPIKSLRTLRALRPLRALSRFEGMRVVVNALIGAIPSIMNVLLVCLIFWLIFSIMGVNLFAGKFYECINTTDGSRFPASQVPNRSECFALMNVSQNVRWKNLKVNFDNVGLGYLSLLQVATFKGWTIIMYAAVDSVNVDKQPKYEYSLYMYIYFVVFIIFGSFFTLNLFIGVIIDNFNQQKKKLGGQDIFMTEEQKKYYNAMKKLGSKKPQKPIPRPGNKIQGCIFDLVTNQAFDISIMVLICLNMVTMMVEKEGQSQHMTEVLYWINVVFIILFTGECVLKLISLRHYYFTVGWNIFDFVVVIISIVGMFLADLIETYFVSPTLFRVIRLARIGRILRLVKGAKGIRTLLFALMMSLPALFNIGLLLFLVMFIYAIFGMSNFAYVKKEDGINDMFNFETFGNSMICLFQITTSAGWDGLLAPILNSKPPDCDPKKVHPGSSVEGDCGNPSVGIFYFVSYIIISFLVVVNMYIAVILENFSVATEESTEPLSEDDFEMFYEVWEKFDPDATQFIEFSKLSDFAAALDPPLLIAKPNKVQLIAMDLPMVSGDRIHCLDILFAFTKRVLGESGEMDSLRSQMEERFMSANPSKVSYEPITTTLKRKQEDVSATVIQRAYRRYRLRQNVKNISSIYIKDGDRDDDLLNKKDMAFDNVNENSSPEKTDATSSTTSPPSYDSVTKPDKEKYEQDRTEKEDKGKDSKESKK

The target in assay [2] is T1, Sodium channel protein type 9 subunit alpha. The description is as §1, with “in Tonic” for “in Inactivated”. The assay is classed as cell-based.

What is called IC50 is the concentration needed to halve the response being measured. Regarding `Nc1nc(NC2CCNCC2)nnc1-c1cccc(Cl)c1Cl`, the 50% inhibitory concentration (IC50) in assay [1] is > 300 µM.
Turning to `Nc1nc(N2CCN(CC(O)CO)[C@H](CO)C2)nnc1-c1cccc(Cl)c1Cl` (some centres undefined), the IC50 in assay [1] is 293 µM and 243 µM; in assay [2], > 200 µM.
As to `Nc1nc(N2CC(N)C2)nnc1-c1cccc(Cl)c1Cl`, in assay [1], the IC50 was determined as 284 µM.
On to `Nc1nc(N2CCN[C@H](CO)C2)nnc1-c1cccc(Cl)c1Cl`, for which the concentration for half-maximal inhibition (IC50) in assay [1] was 71.8 µM; in assay [2], > 200 µM.
For `COCCOCCOCCN(C)C1CCN(c2nnc(-c3cccc(Cl)c3Cl)c(N)n2)CC1`, the IC50 in assay [1] is < 50 µM; in assay [2], 92.5 µM.
Take `CC(CO)Nc1nnc(-c2cccc(Cl)c2Cl)c(N)n1` (centres undefined): the IC50 is 127 µM in assay [1] and > 200 µM in assay [2].
For `Nc1nc(N2CC(O)(C(F)(F)F)C2)nnc1-c1cccc(Cl)c1Cl`, the half-maximal inhibitory concentration (IC50) in assay [1] is 291 µM and 249 µM; in assay [2] it was > 200 µM.
Consider `C[C@@H]1CN(c2nnc(-c3cc(F)cc(Cl)c3Cl)c(N)n2)C[C@H](C)N1`, for which the 50% inhibitory concentration (IC50) is < 50 µM in assay [1] and 92.4 µM in assay [2].
Consider `Nc1nc(N2CCC(O)(C(F)(F)F)CC2)nnc1-c1cccc(Cl)c1Cl`, for which the IC50 was 73.9 µM and 59.1 µM in assay [1]; > 200 µM and 165 µM in assay [2].
As to `COCCOCCOCC(C)Nc1nnc(-c2cccc(Cl)c2Cl)c(N)n1` (centres undefined), the IC50 is < 50 µM in assay [1] and > 200 µM in assay [2].
Consider `Nc1nc(N2CCN[C@H](CO)C2)nnc1-c1cc(F)cc(Cl)c1Cl`, for which the figures for the IC50 in assay [1] and in assay [2] were 72.6 µM and > 200 µM, respectively.
For `Nc1nc(N2CCN(C3CCOCC3)CC2)nnc1-c1cccc(Cl)c1Cl`, in that order: < 50 µM and 147 µM.
In the case of `COCCOCCOCCN1CCN(c2nnc(-c3cccc(Cl)c3Cl)c(N)n2)CC1`, the IC50 in assay [1] was 54.9 µM and < 50 µM; in assay [2], > 200 µM.
As for `Nc1nc(N2CCNCC2)nnc1-c1cc(F)cc(Cl)c1Cl`, the IC50 is 84.5 µM in assay [1] and > 200 µM in assay [2].
`Nc1nc(N2CC(O)C2)nnc1-c1cccc(Cl)c1Cl`: in assay [2], the IC50 was > 132 µM.
As for `Nc1nc(N2CCN[C@@H](CO)C2)nnc1-c1cc(F)cc(Cl)c1Cl`, the IC50 is 111 µM in assay [1] and > 200 µM in assay [2].
With `Nc1nc(N2CC(OCC(F)(F)F)C2)nnc1-c1cccc(Cl)c1Cl`, the IC50 in assay [1] was > 300 µM.
Consider `COCCOCCOCC(=O)N1CCN(c2nnc(-c3cc(F)cc(Cl)c3Cl)c(N)n2)CC1`, for which the 50% inhibitory concentration (IC50) is 146 µM and 220 µM in assay [1]; > 200 µM in assay [2].
As for `COCCOCCOCCN1CCC(Nc2nnc(-c3cc(F)cc(Cl)c3Cl)c(N)n2)CC1`, the IC50 in assay [2] was > 200 µM.
Take `COCCOCCOCCOc1ccc(-c2nnc(N)nc2N)c(Cl)c1Cl`: in assay [1], the IC50 was > 300 µM.
`Nc1nc(N2CCN(C3CCNCC3)CC2)nnc1-c1cccc(Cl)c1Cl`: the half-inhibitory concentration (IC50) in assay [1] is 272 µM; in assay [2], > 200 µM.
Take `C[C@@H]1CN(c2nnc(-c3cccc(Cl)c3Cl)c(N)n2)C[C@H](C)N1`: the IC50 in assay [1] was < 50 µM; in assay [2], 112 µM.
In the case of `Nc1nc(NCCOCCNCC(=O)O)nnc1-c1cccc(Cl)c1Cl`, the IC50 in assay [1] is > 300 µM.
